Laboratory results taken from PubChem BioAssay AID2060484 (Molecular Pharmacology Branch, DTP, NCI, 2025).
Values joined by “and” are separate entries in the source; they are usually repeats but may differ in a detail not shown here. Identical values can stand only once.

Tested on: SUM149PT spheroids with HUVEC/MSC, viability
Assay: Anticancer human tumor SUM149PT cell line growth inhibition [GQUAD];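 further: spheroids exposed to drugs for seven days before readout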;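 on viability, T/C: percent viability relative to DMSO vehicle control taken as 100%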
Conditions: for viability, T/C: stronger effect = lower value; active means viability on the fitted dose curve at most 10% of control; inactive means the rest
Description: DNA G-quadruplex Stabilizer Agents in Combinations in Complex Spheroids
A high-throughput screen of multi-cell type tumor spheroids was designed to identify active combinations of DNA G-quadruplex stabilizer agents and targeted small molecules. Complex spheroids include a stromal component modeled by human endothelial cells (HUVEC) and fibroblasts modeled by human mesenchymal stem cells (MSCs). The concentration ranges selected for each drug and investigational agent were based upon clinically achievable concentrations if the clinical Cmax of the agent was known.
Compounds. The drugs and investigational agents: pidnarulex (CX-5461; NSC782164), APTO-253 (NSC789042), BRACO-19 (NSC847499), peposertib (NSC802822), ceralasertib (NSC780249), elimusertib (NSC800525), camonsertib (NSC841442), AZD-1390 (NSC803789), olaparib (NSC753686), talazoparib (NSC767125), ART-558 (NSC835418), sotorasib (NSC818433), MRTX-1133 (NSC836407), SN-38 (NSC673596), topotecan (NSC609699), etoposide (NSC141540), doxorubicin (NSC123127), gemcitabine (NSC613327), 5-fluorouracil (NSC19893), paclitaxel (NSC125973), vemurafenib (NSC761431), panobinostat (NSC761190), R-306465 (JNJ-16241199; NSC773264), adavosertib (NSC754352), TP-3654 (NSC805149), carboplatin (NSC241240), KSQ-4279 (NSC840948), and staurosporine (NSC755774) were obtained from the National Cancer Institute (NCI) Developmental Therapeutics Program Chemical Repository (34). The FDA-approved anticancer drug set is available from the NCI Developmental Therapeutics Program. […] The stock solutions were prepared in dimethyl sulfoxide (DMSO, Sigma-Aldrich, St. Louis, MO, cat. D2650) at 800-fold the tested concentration and stored at -70 degrees C prior to their use. All drugs and investigational agents were tested over a range starting from a high concentration at or near the clinical Cmax and decreasing in half-log increments. If the clinical Cmax for an agent had not been determined, the highest concentration tested was 10 microM.
2.3 Cell Culture. All cells were maintained in an incubator at 37 degrees C and 5% CO2 with 95% humidity. The PDC lines were cultured according to standard operating procedures established by the NCI PDMR. All PDCs were thawed and cultured in Matrigel-coated flasks prepared with a working solution of 1X Ham's F-12 nutrient mix, without supplementation (Invitrogen, cat. 11765054), 100 U/mL penicillin-streptomycin (Invitrogen, cat. 15140122), and 2.5% Matrigel (Corning Inc., cat. 354248) for the first three passages. The 857933-349-R-J2-PDC line was cultured in 6C/Colon 1B media, which includes advanced DMEM/F-12 (Thermo Fisher Scientific, cat. 12634028), 10 mM HEPES (Thermo Fisher Scientific, cat. 15630080), 1X GlutaMAX supplement (Thermo Fisher Scientific, cat. 35050061), 0.1 mg/mL primocin (InvivoGen, cat. ant-pm-2), 10% defined fetal bovine serum, heat inactivated (HyClone Laboratories Inc., cat. SH30070.03HI), 50% L-WRN conditioned media (ATCC, cat. CRL-3276), 1.25 mM N-Acetyl-L-cysteine (Sigma-Aldrich, cat. A9165), 10 mM nicotinamide (Sigma-Aldrich, cat. N0636), 1X B-27 supplement (Thermo Fisher Scientific, cat. 17504044), 1X N-2 supplement (Thermo Fisher Scientific, cat. 17502048), 10 microM Y-27632 dihydrochloride (Tocris Bioscience, cat. 1254), and 50 ng/mL human EGF recombinant protein (Thermo Fisher Scientific, cat. PHG0311). The 485176-168-R4-J1-PDC line was cultured in Panc media, which includes all 6C/Colon 1B media components plus 100 ng/mL human FGF-10 (Thermo Fisher Scientific, cat. 100-26), 500 nM SB-431542 (Selleckchem, cat. S1067), and gastrin (Tocris, cat. 3006).
[…]

[1] = curve of first compound, second compound 0.0316 µM
[2] = curve of first compound, second compound 0.1 µM
[3] = curve of first compound, second compound 0.316 µM
[4] = curve of first compound, second compound 1 µM
[5] = curve of first compound, second compound 3.16 µM
[6] = curve of first compound, second compound 10 µM
[7] = second compound 0.0316 µM, first compound 0.0316 µM
[8] = second compound 0.0316 µM, first compound 0.1 µM
[9] = second compound 0.0316 µM, first compound 0.316 µM
[10] = second compound 0.0316 µM, first compound 1 µM
[11] = second compound 0.0316 µM, first compound 3.16 µM
[12] = second compound 0.0316 µM, first compound 10 µM
[13] = second compound 0.1 µM, first compound 0.0316 µM
[14] = second compound 0.1 µM, first compound 0.1 µM
[15] = second compound 0.1 µM, first compound 0.316 µM
[16] = second compound 0.1 µM, first compound 1 µM
[17] = second compound 0.1 µM, first compound 3.16 µM
[18] = second compound 0.1 µM, first compound 10 µM
[19] = second compound 0.316 µM, first compound 0.0316 µM
[20] = second compound 0.316 µM, first compound 0.1 µM
[21] = second compound 0.316 µM, first compound 0.316 µM
[22] = second compound 0.316 µM, first compound 1 µM
[23] = second compound 0.316 µM, first compound 3.16 µM
[24] = second compound 0.316 µM, first compound 10 µM
[25] = second compound 1 µM, first compound 0.0316 µM
[26] = second compound 1 µM, first compound 0.1 µM
[27] = second compound 1 µM, first compound 0.316 µM
[28] = second compound 1 µM, first compound 1 µM
[29] = second compound 1 µM, first compound 3.16 µM
[30] = second compound 1 µM, first compound 10 µM
[31] = second compound 3.16 µM, first compound 0.0316 µM
[32] = second compound 3.16 µM, first compound 0.1 µM
[33] = second compound 3.16 µM, first compound 0.316 µM
[34] = second compound 3.16 µM, first compound 1 µM
[35] = second compound 3.16 µM, first compound 3.16 µM
[36] = second compound 3.16 µM, first compound 10 µM
[37] = second compound 10 µM, first compound 0.0316 µM
[38] = second compound 10 µM, first compound 0.1 µM
[39] = second compound 10 µM, first compound 0.316 µM
[40] = second compound 10 µM, first compound 1 µM
[41] = second compound 10 µM, first compound 3.16 µM
[42] = second compound 10 µM, first compound 10 µM

COc1ncnc(C2CC2)c1-c1ncc2cnn(Cc3ccc(-c4nc(C(F)(F)F)cn4C(C)C)cc3)c2n1 + Cc1cnc(CNC(=O)c2c(=O)c3ccc(N4CCCN(C)CC4)nc3n3c2sc2ccccc23)cn1
> 10 µM: IC50 [1]
< 0.0316 µM: IC50 [3] | IC50 [4] | IC50 [5] | IC50 [6]
inactive: viability, T/C [7] 87.3% | viability, T/C [8] 63.3% | viability, T/C [9] 62.1% | viability, T/C [10] 61.9% | viability, T/C [11] 70.5% | viability, T/C [12] 81.5% | viability, T/C [13] 55.3% | viability, T/C [14] 57.5% | viability, T/C [15] 45.2% | viability, T/C [16] 48.1% | viability, T/C [17] 57.1% | viability, T/C [18] 62.7% | viability, T/C [19] 45.1% | viability, T/C [20] 50.3% | viability, T/C [21] 45.6% | viability, T/C [22] 43.1% | viability, T/C [23] 48.1% | viability, T/C [24] 56.1% | viability, T/C [25] 37.4% | viability, T/C [26] 38.4% | viability, T/C [27] 47.1% | viability, T/C [28] 41.4% | viability, T/C [29] 40% | viability, T/C [30] 49.4% | viability, T/C [31] 35% | viability, T/C [32] 32.9% | viability, T/C [33] 34.1% | viability, T/C [34] 33.5% | viability, T/C [35] 40% | viability, T/C [36] 39.1%
0.0316 µM: IC50 [2]
active: viability, T/C [37] 0.16% | viability, T/C [38] 11.9% | viability, T/C [39] 27.6% | viability, T/C [40] 11% | viability, T/C [41] 3.43% | viability, T/C [42] 1.12%

COc1cccc2c1C(=O)c1c(O)c3c(c(O)c1C2=O)CC(O)(C(=O)CO)CC3OC1CC(N)C(O)C(C)O1 (stereo unspecified) + Cc1cnc(CNC(=O)c2c(=O)c3ccc(N4CCCN(C)CC4)nc3n3c2sc2ccccc23)cn1
active: viability, T/C [11] 1.37% | viability, T/C [12] 2.54% | viability, T/C [17] 1.96% | viability, T/C [18] 1.69% | viability, T/C [23] 2.74% | viability, T/C [24] 3.01% | viability, T/C [29] 0.7% | viability, T/C [30] 1.88% | viability, T/C [35] 1.22% | viability, T/C [36] 1.18% | viability, T/C [37] 0.13% | viability, T/C [38] 1.99% | viability, T/C [39] 15.3% | viability, T/C [40] 0.37% | viability, T/C [41] 0.4% | viability, T/C [42] 1.84%
0.0979 µM: IC50 [2]
0.112 µM: IC50 [1]
< 0.0316 µM: IC50 [4] | IC50 [5] | IC50 [6]
inactive: viability, T/C [7] 66.9% | viability, T/C [8] 48.3% | viability, T/C [9] 36.2% | viability, T/C [10] 13.1% | viability, T/C [13] 57.7% | viability, T/C [14] 47.1% | viability, T/C [15] 36.3% | viability, T/C [16] 15.2% | viability, T/C [19] 57.3% | viability, T/C [20] 45.9% | viability, T/C [21] 34.1% | viability, T/C [22] 16.2% | viability, T/C [25] 44.2% | viability, T/C [26] 43.7% | viability, T/C [27] 30.1% | viability, T/C [28] 15.9% | viability, T/C [31] 36.5% | viability, T/C [32] 35.7% | viability, T/C [33] 28.9% | viability, T/C [34] 13%
0.0759 µM: IC50 [3]

CC[C@@]1(O)C(=O)OCc2c1cc1n(c2=O)Cc2cc3c(CN(C)C)c(O)ccc3nc2-1
0.0895 µM and > 0.316 µM and 0.076 µM: IC50 (curve of compound)
inactive: viability, T/C (compound 0.000999 µM) 105% (2×) and 108% | viability, T/C (compound 0.00316 µM) 94.7% and 93.8% and 94.1% | viability, T/C (compound 0.00999 µM) 98% and 95.1% and 105% | viability, T/C (compound 0.0316 µM) 84.5% and 87.9% and 69.8% | viability, T/C (compound 0.0999 µM) 43.6% and 53.2% and 39.2% | viability, T/C (compound 0.316 µM) 49.1% and 51.8% and 48.5%
